From BindingDB's records for doi:10.1016/j.bioorg.2017.01.008 (University of Karachi, 2017)
Where “and” joins values, the source holds several entries; their conditions need not be identical. Equal entries are not always repeated.

Molecular target: T1, Alkaline phosphatase, tissue-nonspecific isozyme (Bos taurus, UniProt P09487)
T1 sequence (P09487 whole entry): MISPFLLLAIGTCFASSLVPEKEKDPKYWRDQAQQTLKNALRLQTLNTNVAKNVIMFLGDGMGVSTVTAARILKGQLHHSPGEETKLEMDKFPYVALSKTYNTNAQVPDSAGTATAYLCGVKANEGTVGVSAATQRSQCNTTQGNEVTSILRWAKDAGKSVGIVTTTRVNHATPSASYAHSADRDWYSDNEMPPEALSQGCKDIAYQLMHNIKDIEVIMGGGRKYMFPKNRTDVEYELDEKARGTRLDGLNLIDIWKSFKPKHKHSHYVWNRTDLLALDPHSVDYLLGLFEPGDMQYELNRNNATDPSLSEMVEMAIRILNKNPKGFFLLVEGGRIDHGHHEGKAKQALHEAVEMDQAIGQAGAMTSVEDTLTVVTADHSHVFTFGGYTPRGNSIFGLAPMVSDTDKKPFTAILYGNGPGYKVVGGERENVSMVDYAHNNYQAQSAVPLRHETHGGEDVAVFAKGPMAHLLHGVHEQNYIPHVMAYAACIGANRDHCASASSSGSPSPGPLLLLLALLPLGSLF
Assay: Alkaline Phosphatase Inhibition Assay
Settings: pH 9.8; 37 °C
Description: (§1) Alkaline phosphatase (b-TNAP, c-IAP purchased from Calzyme Laboratories, Inc. USA) inhibition assay of different cyclic sulfonamides was performed using a chemiluminescent substrate i.e. CDP-Star® (disodium 2-chloro-5-(4-methoxyspiro[1,2-dioxetane-3,2'-(5-chlorotricyclo[3.3.1.13.7]decan])-4-yl]-1-phenyl phosphate). With a slight modification in reported spectrophotometric procedure, an optimized conditions of the bioassay were developed [Hessle et al., Proc. Natl. Acad. Sci., 99:9445-9449]. Buffer solution for this bioassay was composed of 8 M DEA (pH 9.8) that contain 2.5 mM MgCl2 and 0.05 mM ZnCl2. First of all, the compounds were tested at the final concentration of 200 μM(with final DMSO 1% (v/v)). In bioassay procedure, the total volume (50 μL solution) contained 10 μL of tested compound, followed by the addition of 20 μL of TNAP (1:800 times diluted (0.8 unit/mL) enzyme in assay buffer) or 20 μL of IAP (1:800 times diluted (1 unit/mL) enzyme in assay buffer). The mixture was allowed to incubate for 3-5 min at 37 °C and luminescence was measured using microplate reader (BioTek FLx800, Instruments,Inc. USA). The reaction was initiated by the addition of 20 μL of CDP-star® (final concentration of 110 μM) and the assay mixture was incubated again at 37 °C. The change in the luminescence was measured after for 15 min of incubation. The activity of each compound was compared with total activity control (without any inhibitor). Levamisole (2 mM per well) and L-phenylalanine (4 mM per well) were used as a standard inhibitors for tissuenonspecific alkaline phosphatase (TNAP) and calf intestinal alkaline phosphatase (IAP), respectively.

For COc1ccc(C2NS(=O)(=O)c3cccc4c(N(C)C)ccc2c34)c(OC)c1OC (stereo unspecified) [6-(Dimethylamino)-3-(2',3',4'-trimethoxyphenyl)-2,3-dihydronaphtho[1,8-de][1,2]thiazine 1,1-dioxide (7n)], the IC50 was 1190 nM and 510 nM.
In the case of COc1ccc(C2NS(=O)(=O)c3cccc4c(N(C)C)ccc2c34)cc1O (stereo unspecified) [6-(Dimethylamino)-3-(3'-hydroxy-4'-methoxyphenyl)-2,3-dihydronaphtho[1,8-de][1,2]thiazine 1,1-dioxide (7k)], the IC50 is reported as 270 nM and 1690 nM.
With COc1cc(Br)c(C2NS(=O)(=O)c3cccc4c(N(C)C)ccc2c34)cc1O (stereo unspecified) [6-(Dimethylamino)-3-(5'-bromo-2'-hydroxy-3'-methoxyphenyl)-2,3-dihydronaphtho[1,8-de][1,2]thiazine 1,1-dioxide (7m)] the IC50 was 440 nM and 680 nM.

Compared with COc1ccccc1C1NS(=O)(=O)c2cccc3c(N(C)C)ccc1c23 (stereo unspecified) [6-(Dimethylamino)-3-(2'-methoxyphenyl)-2,3-dihydronaphtho[1,8-de][1,2]thiazine 1,1-dioxide (7i)], CN(C)c1ccc2c3c(cccc13)S(=O)(=O)NC2c1ccccc1 (stereo unspecified) [6-(Dimethylamino)-3-phenyl-2,3-dihydronaphtho[1,8-de][1,2]thiazine 1,1-dioxide (7a)] is 1.6-fold lower in IC50: 310 nM for the first, 190 nM for the second. The second is the more potent here.

First: CN(C)c1ccc2c3c(cccc13)S(=O)(=O)NC2c1cc(Cl)cc(Cl)c1O (stereo unspecified) [6-(Dimethylamino)-3-(3',5'-dichloro-2-hydroxyphenyl)-2,3-dihydronaphtho[1,8-de][1,2]thiazine 1,1-dioxide (7g)]
Second: CN(C)c1ccc2c3c(cccc13)S(=O)(=O)NC2c1ccc(Cl)cc1 (stereo unspecified) [6-(Dimethylamino)-3-(4'-dichlorophenyl)-2,3-dihydronaphtho[1,8-de][1,2]thiazine 1,1-dioxide (7b)]
The IC50 of the first is 1.6-fold lower: 270 nM for the first, 420 nM for the second.

Compared with CN(C)c1ccc2c3c(cccc13)S(=O)(=O)NC2c1cccc([N+](=O)[O-])c1 (stereo unspecified) [6-(Dimethylamino)-3-(3'-nitrophenyl)-2,3-dihydronaphtho[1,8-de][1,2]thiazine 1,1-dioxide (7f)], CN(C)c1ccc2c3c(cccc13)S(=O)(=O)NC2c1ccc([N+](=O)[O-])cc1 (stereo unspecified) [6-(Dimethylamino)-3-(4'-nitrophenyl)-2,3-dihydronaphtho[1,8-de][1,2]thiazine 1,1-dioxide (7h)] is 13-fold lower in IC50: 1450 nM for the first, 110 nM for the second.

Compared with COc1cc(C2NS(=O)(=O)c3cccc4c(N(C)C)ccc2c34)ccc1O (stereo unspecified) [6-(Dimethylamino)-3-(4'-hydroxy-3'-methoxyphenyl)-2,3-dihydronaphtho[1,8-de][1,2]thiazine 1,1-dioxide (7j)], CN(C)c1ccc2c3c(cccc13)S(=O)(=O)NC2c1ccc(O)cc1 (stereo unspecified) [6-(Dimethylamino)-3-(4'-hydroxyphenyl)-2,3-dihydronaphtho[1,8-de][1,2]thiazine 1,1-dioxide (7d)] is 2.5-fold higher in IC50: 200 nM for the first, 500 nM for the second.

First: Cc1ccc(C2NS(=O)(=O)c3cccc4c(N(C)C)ccc2c34)cc1 (stereo unspecified) [6-(Dimethylamino)-3-(4'-methylphenyl)-2,3-dihydronaphtho[1,8-de][1,2]thiazine 1,1-dioxide (7c)]
Second: CSc1ccc(C2NS(=O)(=O)c3cccc4c(N(C)C)ccc2c34)cc1 (stereo unspecified) [6-(Dimethylamino)-3-(4'-thiomethylphenyl)-2,3-dihydronaphtho[1,8-de][1,2]thiazine 1,1-dioxide (7e)]
The IC50 of the first is 14-fold lower: 460 nM for the first, 6630 nM for the second. The first is the more potent here.

Compound N[C@@H](Cc1ccccc1)C(=O)O [L-[2,3,4,5,6-3H]phenylalanine] has an IC50 of 80200 nM.

Molecular target: Intestinal-type alkaline phosphatase (Bos taurus, UniProt P19111)
Sequence (P19111 whole entry): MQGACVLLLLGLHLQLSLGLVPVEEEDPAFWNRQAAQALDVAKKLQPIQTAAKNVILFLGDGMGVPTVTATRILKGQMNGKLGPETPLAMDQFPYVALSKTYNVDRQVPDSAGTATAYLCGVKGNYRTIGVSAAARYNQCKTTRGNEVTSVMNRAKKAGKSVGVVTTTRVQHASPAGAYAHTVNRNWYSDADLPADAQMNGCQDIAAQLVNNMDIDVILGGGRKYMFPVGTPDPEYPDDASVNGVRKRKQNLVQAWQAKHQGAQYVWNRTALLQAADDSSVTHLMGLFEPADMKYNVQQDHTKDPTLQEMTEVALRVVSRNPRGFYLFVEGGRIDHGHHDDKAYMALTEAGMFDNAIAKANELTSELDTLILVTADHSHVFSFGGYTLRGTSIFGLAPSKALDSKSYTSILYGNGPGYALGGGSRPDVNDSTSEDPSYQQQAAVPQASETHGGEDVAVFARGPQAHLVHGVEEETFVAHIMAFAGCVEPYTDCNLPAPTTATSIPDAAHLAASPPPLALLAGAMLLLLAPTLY
Assay: Alkaline Phosphatase Inhibition Assay
Settings: pH 9.8; 37 °C
Description: as §1

Going from CN(C)c1ccc2c3c(cccc13)S(=O)(=O)NC2c1cc(Cl)cc(Cl)c1O (stereo unspecified) [6-(Dimethylamino)-3-(3',5'-dichloro-2-hydroxyphenyl)-2,3-dihydronaphtho[1,8-de][1,2]thiazine 1,1-dioxide (7g)] to CN(C)c1ccc2c3c(cccc13)S(=O)(=O)NC2c1ccccc1 (stereo unspecified) [6-(Dimethylamino)-3-phenyl-2,3-dihydronaphtho[1,8-de][1,2]thiazine 1,1-dioxide (7a)], the IC50 rises from 380 nM to 1120 nM (2.9-fold).
